Assay results published in patent US9169252B2 (BRISTOL-MYERS SQUIBB COMPANY, priority 2014, dated 2015).
Like-named read-outs stand apart in the source and are kept apart here. Values belong to the compound of their own block, whether it stands above or below them.

Legend:
[1] = target: IRAK4 (Homo sapiens (Human), UniProt Q9NWZ3); assay: IRAK4 Inhibition Assay; format: biochemical; conditions: ATP 500 μM, read-out: IRAK4 IC50
Outline: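 IRAK4 combined with fluorescent substrate and compounds, reacted 60 min at room temperature, stopped with 35 mM EDTA. Substrate and phosphorylated product separated electrophoretically on a Caliper LabChip 3000 mobility-shift reader.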

[2] = system: TLR2 induced IL-6 in peripheral blood mononuclear cells (PBMCs); assay: PBMC TLR2 Induced IL-6 Assay; format: cell-based, human; conditions: IL-6 by ELISA; for EC50: read-out: Cell EC50; for IC50: read-out: Cell IC50
Outline: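 Lipoteichoic acid at 10 µg/ml served as TLR2 stimulus for 5 hours, following a 30-minute compound pretreatment at 37° C. Cells were Ficoll-isolated human PBMCs, 250000 cells/well, cultured in RPMI plus 10% heat-inactivated FCS.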

[3] = Homo sapiens, PBMC, human PBMCs, lipoteichoic acid stimulated
[4] = Homo sapiens, PBMC, PBMC TLR2 Induced IL-6 Assay, lipoteichoic acid stimulation
[5] = human PBMCs, lipoteichoic acid stimulated
[6] = PBMC TLR2 Induced IL-6 Assay, lipoteichoic acid stimulation

IRAK4, sequence (Q9NWZ3 whole entry, species assumed): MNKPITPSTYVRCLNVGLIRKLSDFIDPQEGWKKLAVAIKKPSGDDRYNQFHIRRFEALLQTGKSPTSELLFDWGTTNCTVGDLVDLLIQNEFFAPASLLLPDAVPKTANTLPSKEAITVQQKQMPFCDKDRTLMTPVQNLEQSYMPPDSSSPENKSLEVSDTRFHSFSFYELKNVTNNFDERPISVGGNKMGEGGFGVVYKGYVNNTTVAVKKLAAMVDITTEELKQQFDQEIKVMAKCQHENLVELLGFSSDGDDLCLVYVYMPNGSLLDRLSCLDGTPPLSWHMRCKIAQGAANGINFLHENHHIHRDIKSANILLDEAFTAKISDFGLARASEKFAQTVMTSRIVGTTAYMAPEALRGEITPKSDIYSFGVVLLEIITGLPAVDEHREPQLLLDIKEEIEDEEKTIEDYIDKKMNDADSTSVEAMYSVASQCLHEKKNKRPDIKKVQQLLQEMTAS

Structure (SMILES): CC(C)(O)[C@H](F)CNC(=O)c1cnc(-n2ccc3cc(C#N)cnc32)cc1NC1CC1c1c[nH]cn1 (mixture of isomers) [Example 460]
IC50 ([1]; IRAK4 0.6 nM): 3.3 nM | EC50 [2, 3]: 88 nM | IC50 [2, 3]: 113 nM

Structure (SMILES): CC(C)(F)CCNc1cc(-n2ncc3cc(C#N)cnc32)ncc1C(=O)NC[C@@H](F)C(C)(C)O [Example 600]
IC50 ([1]; IRAK4 0.6 nM): 5.3 nM | IC50 [2, 3]: 477 nM

Structure (SMILES): CC(C)(O)[C@H]1CC[C@H](NC(=O)c2cnc(-n3ccc4cc(C#N)cnc43)cc2NC2CC2)CC1 [Example 429]
IC50 ([1]; IRAK4 0.6 nM): 1.5 nM | EC50 [2, 3]: 92 nM

Structure (SMILES): CC(C)(O)[C@H](F)CNC(=O)c1cnc(-n2ccc3cc(C#N)cnc32)cc1NC1CCC(NCC(F)(F)F)C1 (stereo partly drawn) [Example 489]
IC50 ([1]; IRAK4 0.6 nM): 4.3 nM | EC50 [2, 5]: 318 nM | IC50 [2, 5]: 1700 nM

Structure (SMILES): CC(C)(O)[C@H](F)CNC(=O)c1cnc(-n2ncc3cc(C#N)cnc32)cc1N[C@H]1CC[C@H](O)CC1 [Example 159, 6-(5-cyano-1H-pyrazolo[3,4-b]pyridin-1-yl)-N—((R)-2-fluoro-3-hydroxy-3-methylbutyl)-4-(((trans)-4-hydroxycyclohexyl)amino)nicotinamide]
IC50 ([1]; IRAK4 Inhibition Assay): 2.4 nM | EC50 [2, 4]: 112 nM

Structure (SMILES): CNC(=O)[C@H]1CC[C@H](NC(=O)c2cnc(-n3ccc4cc(C#N)ccc43)cc2NC(C)C)CC1 [Example 79, 6-(5-Cyano-1H-indol-1-yl)-4-(isopropylamino)-N-((trans)-4-(methylcarbamoyl)cyclohexyl)nicotinamide]
IC50 ([1]; IRAK4 Inhibition Assay): 11.6 nM | EC50 [2, 4]: 436 nM | IC50 [2, 4]: 436 nM

Structure (SMILES): CC(C)Nc1cc(-n2ncc3cc(C#N)cnc32)ncc1C(=O)NC[C@@H](F)C(O)C(C)C (single isomer, unassigned) [Example 233]
IC50 ([1]; IRAK4 Inhibition Assay): 3.6 nM | EC50 [2, 6]: 38 nM | IC50 [2, 6]: 176 nM

Structure (SMILES): CC(C)(O)[C@H](F)CNC(=O)c1cnc(-n2ncc3cc(C#N)cnc32)cc1NC1COC1 [Example 546]
IC50 ([1]; IRAK4 0.6 nM): 3.7 nM | EC50 [2, 3]: 257 nM

Structure (SMILES): CC(C)(O)[C@H](F)CNC(=O)c1cnc(-n2ncc3cc(C#N)cnc32)cc1NC1CCC1 [Example 145, (R)-6-(5-cyano-1H-pyrazolo[3,4-b]pyridin-1-yl)-4-(cyclobutylamino)-N-(2-fluoro-3-hydroxy-3-methylbutyl)nicotinamide]
IC50 ([1]; IRAK4 Inhibition Assay): 4.5 nM | EC50 [2, 4]: 61 nM

Structure (SMILES): CC(C)Nc1cc(-n2ncc3cc(C#N)c(N)nc32)ncc1C(=O)NC[C@@H](F)C(C)(C)O [Example 262]
IC50 ([1]; IRAK4 Inhibition Assay): 1.3 nM | IC50 [2, 4]: 48 nM

Structure (SMILES): CC(C)(O)[C@H](F)CNC(=O)c1cnc(-n2ccc3cc(C#N)cnc32)cc1Nc1ccc2[nH]ncc2c1 [Example 438]
IC50 ([1]; IRAK4 0.6 nM): 2.5 nM | EC50 [2, 3]: 33 nM

Structure (SMILES): CC(C)(O)[C@H](F)CNC(=O)c1cnc(-n2ncc3cc(C#N)cnc32)cc1NCC(C)(C)N1CCOCC1 [Example 570]
IC50 ([1]; IRAK4 0.6 nM): 10.7 nM | EC50 [2, 3]: 425 nM

Structure (SMILES): CC(C)(O)[C@H](F)CNC(=O)c1cnc(-n2ncc3cc(C#N)cnc32)cc1Nc1ccc2ncsc2c1 [Example 524]
IC50 ([1]; IRAK4 0.6 nM): 2.6 nM | EC50 [2, 3]: 132 nM

Structure (SMILES): CCCn1cc(Nc2cc(-n3ncc4cc(Cl)cnc43)ncc2C(=O)NC[C@@H](F)C(C)(C)O)cn1 [Example 381]
IC50 ([1]; IRAK4 Inhibition Assay): 2.5 nM | IC50 [2, 4]: 41 nM

Structure (SMILES): CC(C)Nc1cc(-n2ncc3cc(C#N)cnc32)ncc1C(=O)Nc1cnn(C2CCOCC2)c1 [Example 271]
IC50 ([1]; IRAK4 Inhibition Assay): 15.9 nM | IC50 [2, 4]: 176 nM

Structure (SMILES): CC(C)(O)CCNC(=O)c1cnc(-n2ncc3cc(C#N)cnc32)cc1NC1COC1 [Example 553]
IC50 ([1]; IRAK4 0.6 nM): 11.2 nM | IC50 [2, 3]: 298 nM

Structure (SMILES): CC(C)Nc1cc(-n2ccc3cc(C#N)cnc32)ncc1C(=O)NCCC1(O)CCCC1 [Example 487]
IC50 ([1]; IRAK4 0.6 nM): 2 nM | EC50 [2, 3]: 34 nM | IC50 [2, 3]: 111 nM

Structure (SMILES): CC(C)Nc1cc(-n2ncc3cc(C#N)cnc32)ncc1C(=O)NCC(F)=C1CCOCC1 [Example 294]
IC50 ([1]; IRAK4 Inhibition Assay): 13.4 nM | IC50 [2, 4]: 292 nM

Structure (SMILES): CNC(=O)[C@H]1CC[C@H](NC(=O)c2cnc(-n3ccc4cc(C#N)cnc43)cc2NC(C)C)CC1 [Example 80, 6-(5-cyano-1H-pyrrolo[2,3-b]pyridin-1-yl)-4-(isopropylamino)-N-((trans)-4-(methylcarbamoyl)cyclohexyl)nicotinamide]
IC50 ([1]; IRAK4 Inhibition Assay): 1.1 nM | EC50 [2, 4]: 167 nM | IC50 [2, 4]: 79 nM

Structure (SMILES): CC(C)Nc1cc(-n2ncc3cc(C#N)cnc32)ncc1C(=O)NCCc1ccncc1 [Example 259]
IC50 ([1]; IRAK4 Inhibition Assay): 2.5 nM | IC50 [2, 4]: 102 nM

Structure (SMILES): COC(=O)CCNC(=O)c1cnc(-n2ncc3cc(C#N)cnc32)cc1NC(C)C [Example 207]
IC50 ([1]; IRAK4 Inhibition Assay): 10.3 nM | EC50 [2, 4]: 227 nM

Structure (SMILES): CC(C)(O)[C@H](F)CNC(=O)c1cnc(-n2ccc3cc(C#N)cnc32)cc1Nc1ccc(-n2ccnc2)cc1 [Example 471]
IC50 ([1]; IRAK4 0.6 nM): 10.1 nM | EC50 [2, 3]: 194 nM

Structure (SMILES): COC(C)(C)[C@H](F)CNC(=O)c1cnc(-n2ncc3cc(C#N)c(N)nc32)cc1NC(C)C [Example 321]
IC50 ([1]; IRAK4 Inhibition Assay): 3.1 nM | IC50 [2, 4]: 53 nM

Structure (SMILES): CC(C)(O)[C@H](F)CNC(=O)c1cnc(-n2ncc3cc(C#N)cnc32)cc1NC1CCOCC1 [Example 141, (R)-6-(5-cyano-1H-pyrazolo[3,4-b]pyridin-1-yl)-N-(2-fluoro-3-hydroxy-3-methylbutyl)-4-((tetrahydro-2H-pyran-4-yl)amino)nicotinamide]
IC50 ([1]; IRAK4 Inhibition Assay): 2.2 nM | EC50 [2, 4]: 87 nM

Structure (SMILES): CCCn1cc(Nc2cc(-n3cnc4cc(Cl)cnc43)ncc2C(=O)NC[C@@H](F)C(C)(C)O)cn1 [Example 382]
IC50 ([1]; IRAK4 Inhibition Assay): 2.5 nM | IC50 [2, 4]: 482 nM

Structure (SMILES): CC(C)(O)[C@H](F)CNC(=O)c1cnc(-n2cnc3cc(Cl)cnc32)cc1Nc1cnn(C(F)F)c1 [Example 400]
IC50 ([1]; IRAK4 0.6 nM): 7.8 nM | IC50 [2, 3]: 156 nM

Structure (SMILES): CC(C)(O)[C@H](F)CNC(=O)c1cnc(-n2ncc3cc(C#N)cnc32)cc1N[C@H]1CC[C@H](NC(=O)c2ccccc2F)CC1 [Example 634]
IC50 ([1]; IRAK4 0.6 nM): 3.9 nM | IC50 [2, 3]: 277 nM

Structure (SMILES): CC(C)(CNc1cc(-n2ncc3cc(Cl)cnc32)ncc1C(=O)NC[C@@H](F)C(C)(C)O)OC(F)F [Example 603]
IC50 ([1]; IRAK4 0.6 nM): 6.7 nM | IC50 [2, 3]: 321 nM

More lines, main results first:

IC50 ([1]; IRAK4 Inhibition Assay): 13.1 nM
Structure (SMILES): CC(C)Nc1cc(-n2ccc(-c3ccnnc3)n2)ncc1C(=O)NC[C@@H](F)C(C)(C)O [Example 168, (R)—N-(2-Fluoro-3-hydroxy-3-methylbutyl)-4-(isopropylamino)-6-(3-(pyridazin-4-yl)-1H-pyrazol-1-yl)nicotinamide]
EC50 [2, 4]: 305 nM

IC50 ([1]; IRAK4 Inhibition Assay): 2.8 nM
Structure (SMILES): COC[C@H](F)CNC(=O)c1cnc(-n2ccc3cc(C#N)cnc32)cc1NC(C)C [Example 127, (R)-6-(5-Cyano-1H-pyrrolo[2,3-b]pyridin-1-yl)-N-(2-fluoro-3-methoxypropyl)-4-(isopropylamino)nicotinamide]
EC50 [2, 4]: 89 nM

IC50 ([1]; IRAK4 Inhibition Assay): 4.1 nM
Structure (SMILES): CC(C)Nc1cc(-n2ccc3cc(C#N)cnc32)ncc1C(=O)NC[C@@H](F)C(C)NC(C)C (single isomer, unassigned) [Example 129]
EC50 [2, 6]: 451 nM

IC50 ([1]; IRAK4 Inhibition Assay): 4 nM
Structure (SMILES): CC(C)Nc1cc(-n2cnc3cc(Cl)cnc32)ncc1C(=O)NC[C@@H](F)C(C)(C)O [Example 339]
IC50 [2, 4]: 332 nM

IC50 ([1]; IRAK4 0.6 nM): 1.8 nM
Structure (SMILES): CC(C)Nc1cc(-n2ccc3cc(C#N)cnc32)ncc1C(=O)NCC(F)C1(O)COC1 (stereo not drawn) [Example 495]
IC50 [2, 5]: 215 nM

IC50 ([1]; IRAK4 0.6 nM): 1.3 nM
Structure (SMILES): Cn1cc(Nc2cc(-n3ccc4cc(C#N)cnc43)ncc2C(=O)NC[C@@H](F)C(C)(C)O)cn1 [Example 399]
IC50 [2, 3]: 24 nM

IC50 ([1]; IRAK4 Inhibition Assay): 4.8 nM
Structure (SMILES): CC(C)Nc1cc(-n2ccc3cnc(N4CC[C@H](O)C4)nc32)ncc1C(=O)NC[C@@H](F)C(C)(C)O [Example 189, N—((R)-2-fluoro-3-hydroxy-3-methylbutyl)-6-(2-((S)-3-hydroxypyrrolidin-1-yl)-7H-pyrrolo[2,3-d]pyrimidin-7-yl)-4-(isopropylamino)nicotinamide]
EC50 [2, 4]: 75 nM

IC50 ([1]; IRAK4 0.6 nM): 3 nM
Structure (SMILES): CC(C)(O)[C@H](F)CNC(=O)c1cnc(-n2ccc3cc(C#N)cnc32)cc1N[C@H]1CCOC1 [Example 441]
EC50 [2, 3]: 109 nM

IC50 ([1]; IRAK4 Inhibition Assay): 2.1 nM
Structure (SMILES): CCCNc1cc(-n2ccc3cc(C#N)cnc32)ncc1C(=O)NC[C@@H](F)C(C)(C)O [Example 18]
EC50 [2, 4]: 62 nM

IC50 ([1]; IRAK4 0.6 nM): 2.3 nM
Structure (SMILES): CC(C)CC(=O)NCc1cnc2c(ccn2-c2cc(NC(C)C)c(C(=O)NC[C@@H](F)C(C)(C)O)cn2)c1 [Example 503]
IC50 [2, 3]: 99 nM

IC50 ([1]; IRAK4 Inhibition Assay): 7 nM
Structure (SMILES): Cc1cnc2c(cnn2-c2cc(NC(C)C)c(C(=O)NC[C@@H](F)C(C)(C)O)cn2)c1 [Example 155, (R)—N-(2-fluoro-3-hydroxy-3-methylbutyl)-4-(isopropylamino)-6-(5-methyl-1H-pyrazolo[3,4-b]pyridin-1-yl)nicotinamide]
EC50 [2, 4]: 164 nM

IC50 ([1]; IRAK4 Inhibition Assay): 1.3 nM
Structure (SMILES): CC(C)Nc1cc(-n2ccc3cnc(N)nc32)ncc1C(=O)NC[C@@H](F)C(C)(C)O [Example 186, (R)-6-(2-Amino-7H-pyrrolo[2,3-d]pyrimidin-7-yl)-N-(2-fluoro-3-hydroxy-3-methylbutyl)-4-(isopropylamino)nicotinamide]
EC50 [2, 4]: 44 nM

IC50 ([1]; IRAK4 Inhibition Assay): 1.8 nM
Structure (SMILES): CC(CCO)Nc1cc(-n2ccc3cc(C#N)cnc32)ncc1C(=O)NC[C@@H](F)C(C)(C)O (single isomer, unassigned) [Example 22]
EC50 [2, 6]: 47 nM

IC50 ([1]; IRAK4 0.6 nM): 10.5 nM
Structure (SMILES): CC(C)Nc1cc(-n2ccc3cc(CNC(=O)C4CCOC4)cnc32)ncc1C(=O)NC[C@@H](F)C(C)(C)O (stereo partly drawn) [Example 520]
IC50 [2, 3]: 347 nM
